Experimental findings from patent US20240287070A1, “FUSED HETEROCYCLIC DERIVATIVES” (Janssen Sciences Ireland Unlimited Company, priority 2021, published 2024) are described below.

For data set [1], the system named is HBV (HepG2.117 cell line, inducibly HBV producing). The data set is described as follows: Anti-HBV activity, intracellular HBV DNA by real-time PCR in HepG2.117 cell line. It counts as cell-based, hepatitis B virus. Particulars: HepG2.117 cells, 3 days of treatment. In short, it runs like this:
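HepG2.117 cells (Tet-off, inducible HBV production) were induced to replicate HBV by doxycycline absence, then treated with serially diluted compound for 3 days. Activity was quantified as intracellular HBV DNA by real-time PCR using an HBV-specific primer set and probe.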

The subject of data set [2] is HepG2 or HepG2.117 cells. The data set is described as follows: Cytotoxicity, ATPlite Luminescence Assay. Type of data set: cell-based, human. Particulars: 3-days incubation unless marked with *. In short, it runs like this: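 Viability after compound treatment is read as ATP luminescence. Exposure lasts 3 or 4 days.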
A short description of data set [3]: Human liver microsome stability. Type of data set: in vitro ADME. Particulars: pooled human liver microsomes 0.5 mg/mL, 1 μM compound, NADPH 1 mM, 37° C., 0-60 min. The procedure, abridged:
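Single incubations with human liver microsomes started with 1 mM NADPH; samples taken at 0, 5, 10, 20, 40 and 60 min, quenched in acetonitrile (1:3). Cassette LC-MS analysis with internal standard; t½ derived from slope of ln peak-area ratio versus time (k = −gradient).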

`CC(c1cn(C2CC2)c(=O)cn1)N1C[C@@H](C)n2nc3c(c2C1=O)CN(C(=O)c1ccc(Cl)c(Cl)c1)[C@H](C)C3` (single isomer, unassigned) [Compound 56B, (3R,7R)-9-((S*)-1-(4-cyclopropyl-5-oxo-4,5-dihydropyrazin-2-yl)ethyl)-2-(3,4-dichlorobenzoyl)-3,7-dimethyl-1,2,3,4,8,9-hexahydropyrido[4′,3′:3,4]pyrazolo[1,5-a]pyrazin-10(7H)-one] registered an EC50 in data set [1] of 0.084 µM. The compound further returned a CC50 in data set [2] greater than 50 µM. Further, the “HLM Metabolism t1/2” value in data set [3] was 1.53 h.
For `CC(c1ccc(-c2ccn(C)n2)cc1)N1C[C@@H](C)n2nc3c(c2C1=O)CN(C(=O)c1ccc(Cl)c(C#N)c1)[C@H](C)C3` (single isomer, unassigned) [Compound 21B, 2-Chloro-5-((3R,7R)-3,7-dimethyl-9-((S*)-1-(4-(1-methyl-1H-pyrazol-3-yl)phenyl)ethyl)-10-oxo-1,2,3,4,7,8,9,10-octahydropyrido[4′,3′:3,4]pyrazolo[1,5-a]pyrazine-2-carbonyl)benzonitrile], it took 0.012 µM to reach a half-maximal effect in data set [1] (EC50). In addition, in data set [2], the CC50 is greater than 50 µM. For the same compound, in data set [3], the “HLM Metabolism t1/2” value came out at 2.5 h.
`CC(c1cc(F)c(=O)n(C)c1)N1C[C@@H](C)n2nc3c(c2C1=O)CN(C(=O)c1ccc(Cl)c(Cl)c1)[C@H](C)C3` (relative stereo) [Compound 45A, (3R,7R)-2-(3,4-dichlorobenzoyl)-9-((R*)-1-(5-fluoro-1-methyl-6-oxo-,6-dihydropyridin-3-yl)ethyl)-3,7-dimethyl-1,2,3,4,8,9-hexahydropyrido[4′,3′:3,4]pyrazolo [1,5-a]pyrazin-10(7H)-one] gave an EC50 in data set [1] of 0.57 µM. In addition, the CC50 in data set [2] was greater than 50 µM. Further, the “HLM Metabolism t1/2” value in data set [3] is greater than 3 h.
In turn, `C[C@@H]1Cc2nn3c(c2CN1C(=O)c1ccc(Cl)c(C(F)(F)F)c1)C(=O)N([C@@H](C)c1ccc([S@]2(=O)=NCCC2)nc1)C[C@H]3C` (relative stereo) [Compound 30D, (3R,7R)-2-(4-chloro-3-(trifluoromethyl)benzoyl)-3,7-dimethyl-9-((S*)-1-(6-((S*)-1-oxido-4,5-dihydro-3H-116-isothiazol-1-yl)pyridin-3-yl)ethyl)-1,2,3,4,8,9-hexahydropyrido[4′,3′:3,4]pyrazolo[1,5-a]pyrazin-10(7H)-one] returned an EC50 in data set [1] of 0.047 µM. The CC50 in data set [2] was greater than 50 µM. Also, in data set [3], the “HLM Metabolism t1/2” value came out at 0.255 h.
Consider `CC(c1ccc(C(C)(C)O)nc1)N1C[C@@H](C)n2nc3c(c2C1=O)CN(C(=O)c1ccc(Cl)c(F)c1)[C@H](C)C3` (single isomer, unassigned) [Compound 59B, (3R,7R)-2-(4-chloro-3-fluorobenzoyl)-9-((S*)-1-(6-(2-hydroxypropan-2-yl)pyridin-3-yl)ethyl)-3,7-dimethyl-1,2,3,4,8,9-hexahydropyrido[4′,3′:3,4]pyrazolo[1,5-a]pyrazin-10(7H)-one], for which, in data set [1], it took 0.055 µM to reach a half-maximal effect (EC50). In data set [2], this compound displayed a CC50 greater than 50 µM. The “HLM Metabolism t1/2” value in data set [3] was greater than 3 h.
Turning to `CC(c1ccn(CC(C)(C)O)c(=O)c1)N1C[C@@H](C)n2nc3c(c2C1=O)CN(C(=O)c1ccc(Cl)c(C(F)(F)F)c1)[C@H](C)C3` (single isomer, unassigned) [Compound 64B, (3R,7R)-2-(4-chloro-3-(trifluoromethyl)benzoyl)-9-((S*)-1-(1-(2-hydroxy-2-methylpropyl)-2-oxo-1,2-dihydropyridin-4-yl)ethyl)-3,7-dimethyl-1,2,3,4,8,9-hexahydropyrido[4′,3′:3,4]pyrazolo[1,5-a]pyrazin-10(7H)-one], the EC50 in data set [1] is 0.085 µM. In data set [2], the CC50 was greater than 50 µM. In addition, in data set [3], the “HLM Metabolism t1/2” value was greater than 3 h.
In turn, `Cc1nnn(-c2ccc(C(C)N3C[C@@H](C)n4nc5c(c4C3=O)CN(C(=O)c3ccc(Cl)c(Cl)c3)[C@H](C)C5)cc2)n1` (single isomer, unassigned) [Compound 22B, (3R,7R)-2-(3,4-dichlorobenzoyl)-3,7-dimethyl-9-((S*)-1-(4-(5-methyl-2H-tetrazol-2-yl)phenyl)ethyl)-1,2,3,4,8,9-hexahydropyrido[4′,3′:3,4]pyrazolo[1,5-a]pyrazin-10(7H)-one] returned an EC50 in data set [1] of 0.02 µM. This compound also showed a CC50 in data set [2] greater than 50 µM. In addition, the “HLM Metabolism t1/2” value in data set [3] was determined as 2.13 h.
`CC(c1ccc(C(C)(C)O)nc1)N1C[C@@H](C)n2nc3c(c2C1=O)CN(C(=O)c1cc(C(F)(F)F)c(Cl)cn1)[C@H](C)C3` (single isomer, unassigned) [Compound 58B, (3R,7R)-2-(5-chloro-4-(trifluoromethyl)picolinoyl)-9-((S*)-1-(6-(2-hydroxypropan-2-yl)pyridin-3-yl)ethyl)-3,7-dimethyl-1,2,3,4,8,9-hexahydropyrido[4′,3′:3,4]pyrazolo[1,5-a]pyrazin-10(7H)-one]: the midpoint of the response in data set [1], the EC50, lay at 0.19 µM. In data set [2], this compound gave a CC50 greater than 50 µM. In data set [3], the “HLM Metabolism t1/2” value was greater than 3 h.
In turn, `CNS(=O)(=O)c1ccc(C(C)N2C[C@@H](C)n3nc4c(c3C2=O)CN(C(=O)c2ccc(Cl)c(Cl)c2)[C@H](C)C4)cc1` (single isomer, unassigned) [Compound 17B, 4-((S*)-1-((3R,7R)-2-(3,4-dichlorobenzoyl)-3,7-dimethyl-10-oxo-1,3,4,7,8,10-hexahydropyrido[4′,3′:3,4]pyrazolo[1,5-a]pyrazin-9(2H)-yl)ethyl)-N-methylbenzenesulfonamide] had an EC50 in data set [1] of 0.026 µM. This compound had a CC50 in data set [2] greater than 50 µM. For the same compound, the “HLM Metabolism t1/2” value in data set [3] was 1.6 h.
In turn, `CC(C)Oc1cc(C(C)N2C[C@@H](C)n3nc4c(c3C2=O)CN(C(=O)c2ccc(Cl)c(C(F)(F)F)c2)[C@H](C)C4)ccn1` (single isomer, unassigned) [Compound 48B, (3R,7R)-2-(4-chloro-3-(trifluoromethyl)benzoyl)-9-((S*)-1-(2-isopropoxypyridin-4-yl)ethyl)-3,7-dimethyl-1,2,3,4,8,9-hexahydropyrido[4′,3′:3,4]pyrazolo[1,5-a]pyrazin-10(7H)-one] displayed an EC50 in data set [1] of 0.028 µM. Moreover, it took 11.5 µM to reach half-maximal cytotoxicity in data set [2] (CC50). Further, in data set [3], the “HLM Metabolism t1/2” value worked out at 1.66 h.
In turn, `Cc1nnnn1-c1ccc(C(C)N2C[C@@H](C)n3nc4c(c3C2=O)CN(C(=O)c2ccc(Cl)c(Cl)c2)[C@H](C)C4)cn1` (single isomer, unassigned) [Compound 27B, (3R,7R)-2-(3,4-dichlorobenzoyl)-3,7-dimethyl-9-((S*)-1-(6-(5-methyl-1H-tetrazol-1-yl)pyridin-3-yl)ethyl)-1,2,3,4,8,9-hexahydropyrido[4′,3′:3,4]pyrazolo[1,5-a]pyrazin-10(7H)-one] returned an EC50 in data set [1] of 0.018 µM. In addition, in data set [2], the CC50 was greater than 50 µM. Moreover, the “HLM Metabolism t1/2” value in data set [3] is 1.39 h.
Compound `C[C@@H]1Cc2nn3c(c2CN1C(=O)c1ccc(Cl)c(C(F)(F)F)c1)C(=O)N([C@@H](C)c1ccc([S@](C)(=O)=NC#N)cc1)C[C@H]3C` (relative stereo) [Compound 20D, N—((S*)-(4-((S*)-1-((3R,7R)-2-(4-chloro-3-(trifluoromethyl)benzoyl)-3,7-dimethyl-10-oxo-1,3,4,7,8,10-hexahydropyrido[4′,3′:3,4]pyrazolo[1,5-a]pyrazin-9(2H)-yl)ethyl)phenyl)(methyl)(oxo)-16-sulfaneylidene)cyanamide] showed an EC50 in data set [1] of 0.032 µM. For the same compound, the CC50 in data set [2] is greater than 50 µM. Besides, the “HLM Metabolism t1/2” value in data set [3] amounted to 1.47 h.
In the case of `CC(c1ccn(C(F)F)c(=O)c1)N1C[C@@H](C)n2nc3c(c2C1=O)CN(C(=O)c1ccc(Cl)c(C(F)(F)F)c1)[C@H](C)C3` (single isomer, unassigned) [Compound 49B, (3R,7R)-2-(4-chloro-3-(trifluoromethyl)benzoyl)-9-((S*)-1-(1-(difluoromethyl)-2-oxo-1,2-dihydropyridin-4-yl)ethyl)-3,7-dimethyl-1,2,3,4,8,9-hexahydropyrido [4′,3′:3,4]pyrazolo[1,5-a]pyrazin-10(7H)-one], a half-maximal effect in data set [1] (EC50) was put at 0.013 µM. In data set [2], this compound yielded a CC50 greater than 50 µM. Moreover, the “HLM Metabolism t1/2” value in data set [3] is greater than 3 h.
In data set [1], `CC(c1ccc(C#N)cc1)N1C[C@@H](C)n2nc3c(c2C1=O)CN(C(=O)c1ccc(Cl)c(Cl)c1)[C@H](C)C3` (single isomer, unassigned) [Compound 66B, 4-((S*)-1-((3R,7R)-2-(3,4-dichlorobenzoyl)-3,7-dimethyl-10-oxo-1,3,4,7,8,10-hexahydropyrido[4′,3′:3,4]pyrazolo[1,5-a]pyrazin-9(2H)-yl)ethyl)benzonitrile] returned an EC50 of 0.017 µM. The compound further returned a CC50 in data set [2] of 19.1 µM. For the same compound, the “HLM Metabolism t1/2” value in data set [3] is greater than 3 h.
Taken in the same sequence, the figures for `C[C@@H]1Cc2nn3c(c2CN1C(=O)c1ccc(Cl)c(C(F)(F)F)c1)C(=O)N([C@H](C)c1ccc([S@](C)(=O)=NC#N)cc1)C[C@H]3C` (relative stereo) [Compound 20B, N—((S*)-(4-((R*)-1-((3R,7R)-2-(4-chloro-3-(trifluoromethyl)benzoyl)-3,7-dimethyl-10-oxo-1,3,4,7,8,10-hexahydropyrido[4′,3′:3,4]pyrazolo[1,5-a]pyrazin-9(2H)-yl)ethyl)phenyl)(methyl)(oxo)-16-sulfaneylidene)cyanamide] were 0.089 µM, greater than 50 µM and 2.6 h.
